Assay results: ChEMBL document CHEMBL4765321, “Discovery of new thieno[3,2-d]pyrimidine derivatives targeting EGFR NSCLCs by the conformation constrained strategy” (Eur J Med Chem, 2020)
pIC50: −log10 of the molar value. Active and inactive are the calls of the source. No cut-off for these calls is given here.

Legend:
NCI-H1975 [1] = test: cells; format: functional, cell-based; details: Homo sapiens, NCI-H1975, 72 h
PC-9 = test: Antiproliferative activity against human PC9 cells harboring EGFRdel19 mutant assessed as reduction in cell viability measured after 72 hrs by MTT assay; format: functional, cell-based; details: PC-9, 72 h
L02 = test: Cytotoxicity against human L0-2 cells assessed as reduction in cell viability measured after 72 hrs by MTT assay; format: ADME, cell-based; details: L02, 72 h
[2] = tested on: Epidermal growth factor receptor (Homo sapiens), P00533 [L858R,T790M]; test: Inhibition of N-terminal GST-fused human EGFR L858R/T790M double mutant cytoplasmic domain (669 to 1210 residues) expressed in baculovirus expression system using 5-FAM-EEPLYWSFPAKKK-CONH2 as substrate at 1 uM incubated for 20 mins by Mobility shift assay
[3] = target: T1, Epidermal growth factor receptor (Homo sapiens, UniProt P00533); test: Inhibition of N-terminal GST-fused human wild type EGFR cytoplasmic domain (669 to 1210 residues) expressed in baculovirus expression system using 5-FAM-EEPLYWSFPAKKK-CONH2 as substrate incubated for 20 mins by Mobility shift assay
A549 [4] = test: Antiproliferative activity against human A549 cells harboring wild type EGFR assessed as reduction in cell viability measured after 72 hrs by MTT assay; format: cell-based; details: A549, 72 h
[5] = target: Epidermal growth factor receptor (Homo sapiens, UniProt P00533, L858R/T790M); test: Inhibition of N-terminal GST-fused human EGFR L858R/T790M double mutant cytoplasmic domain (669 to 1210 residues) expressed in baculovirus expression system using 5-FAM-EEPLYWSFPAKKK-CONH2 as substrate incubated for 20 mins by Mobility shift assay
Homo sapiens = species: Homo sapiens; test: Selectivity index, ratio of IC50 for N-terminal GST-fused human wild type EGFR cytoplasmic domain (669 to 1210 residues) expressed in baculovirus expression system to IC50 for N-terminal GST-fused human EGFR L858R/T790M double mutant cytoplasmic domain (669 to 1210 residues) expressed in baculovirus expression system
[6] = tested on: Epidermal growth factor receptor (Homo sapiens), P00533 [L858R,T790M]; test: Binding affinity to EGFR L858R/T790M double mutant in human H1975 cells assessed as increase in protein signal at 50 uM incubated for 4 hrs followed by heating from 40 to 64 degC for 5 mins by CETSA based western blot analysis; format: cell-based; details: NCI-H1975, time 245.0 min
[7] = target: T1, Epidermal growth factor receptor; test: Binding affinity to wild type EGFR in human A549 cells assessed as increase in protein signal at 50 uM incubated for 4 hrs followed by heating from 40 to 64 degC for 5 mins by CETSA based western blot analysis; format: cell-based; details: a549, 4.083 h, time 245 min
NCI-H1975 [8] = test: Inhibition of colony formation in human H1975 cells measured after 10 days by crystal violet staining based ELISA; format: functional, cell-based; details: dose 0.31-2.5 µM, time 10.0 day
A549 [9] = test: Inhibition of colony formation in human A549 cells at 0.31 to 2.5 uM measured after 10 days by crystal violet staining based ELISA; format: cell-based; details: a549, 240 h, dose 0.31-2.5 µM, time 10 day
NCI-H1975 [10] = test: Inhibition of cell migration in human H1975 cells at 0.5 to 5 uM incubated for 48 hrs by scratch wound healing assay; format: functional, cell-based; details: dose 0.5-5 µM
A549 [11] = test: Inhibition of cell migration in human A549 cells at 5 uM incubated for 48 hrs by scratch wound healing assay; format: cell-based; details: a549, 48 h
[12] = tested on: Epidermal growth factor receptor (Homo sapiens), P00533 [L858R,T790M]; test: Inhibition of EGF-induced phosphorylation of EGFR L858R/T790M double mutant in human H1975 cells at 1 uM incubated for 2 hrs followed by EGF stimulation for 10 mins by western blot analysis; format: cell-based; details: NCI-H1975, time 130.0 min
[13] = tested on: Epidermal growth factor receptor (Homo sapiens), P00533 [L858R,T790M]; test: Inhibition of EGF-induced phosphorylation of EGFR L858R/T790M double mutant in human H1975 cells at 3 uM incubated for 2 hrs followed by EGF stimulation for 10 mins by western blot analysis; format: cell-based; details: NCI-H1975, time 130.0 min
[14] = tested on: Epidermal growth factor receptor (Homo sapiens), P00533 [L858R,T790M]; test: Inhibition of EGF-induced phosphorylation of EGFR L858R/T790M double mutant in human H1975 cells at 10 uM incubated for 2 hrs followed by EGF stimulation for 10 mins by western blot analysis; format: cell-based; details: NCI-H1975, time 130.0 min
[15] = target: T1, Epidermal growth factor receptor; test: Inhibition of EGFR phosphorylation in human A549 cells at 1 to 10 uM incubated for 2 hrs followed by EGF stimulation for 10 mins by western blot analysis; format: cell-based; details: a549, 2.167 h, dose 1-10 µM, time 130 min
[16] = tested on: Epidermal growth factor receptor (Homo sapiens), P00533 [L858R,T790M]; test: Inhibition of EGFR L858R/T790M double mutant in human H1975 cells assessed as inhibition of EGF-induced ERK phosphorylation at 1 uM incubated for 2 hrs followed by EGF stimulation for 10 mins by western blot analysis; format: cell-based; details: NCI-H1975, time 130.0 min
[17] = tested on: Epidermal growth factor receptor (Homo sapiens), P00533 [L858R,T790M]; test: Inhibition of EGFR L858R/T790M double mutant in human H1975 cells assessed as inhibition of EGF-induced ERK phosphorylation at 3 uM incubated for 2 hrs followed by EGF stimulation for 10 mins by western blot analysis; format: cell-based; details: NCI-H1975, time 130.0 min
[18] = tested on: Epidermal growth factor receptor (Homo sapiens), P00533 [L858R,T790M]; test: Inhibition of EGFR L858R/T790M double mutant in human H1975 cells assessed as inhibition of EGF-induced ERK phosphorylation at 10 uM incubated for 2 hrs followed by EGF stimulation for 10 mins by western blot analysis; format: cell-based; details: NCI-H1975, time 130.0 min
[19] = target: T1, Epidermal growth factor receptor; test: Inhibition of EGFR in human A549 cells assessed as inhibition of ERK phosphorylation at 1 to 10 uM incubated for 2 hrs followed by EGF stimulation for 10 mins by western blot analysis; format: cell-based; details: a549, 2.167 h, dose 1-10 µM, time 130 min
[20] = tested on: Epidermal growth factor receptor (Homo sapiens), P00533 [L858R,T790M]; test: Inhibition of EGFR L858R/T790M double mutant in human H1975 cells assessed as inhibition of EGF-induced ERK phosphorylation incubated for 2 hrs followed by EGF stimulation for 10 mins by western blot analysis; format: cell-based; details: NCI-H1975, dose 1-10 µM, time 130.0 min
[21] = tested on: Epidermal growth factor receptor (Homo sapiens), P00533 [L858R,T790M]; test: Inhibition of EGF-induced phosphorylation of EGFR L858R/T790M double mutant in human H1975 cells incubated for 2 hrs followed by EGF stimulation for 10 mins by western blot analysis; format: cell-based; details: NCI-H1975, dose 1-10 µM, time 130.0 min

Structure (SMILES) | pIC50 (NCI-H1975 [1]) | pIC50 (PC-9) | pIC50 (L02) | inhibition [2] | pIC50 [3] | pIC50 (A549 [4]) | pIC50 [5] | Ratio IC50 (Homo sapiens) | further results
C=CC(=O)Nc1cccc(Oc2nc(Nc3ccc(N4CCN(C)CC4)cc3)nc3ccsc23)c1 [OLMUTINIB] | 5.02 | 4.78 | 7.59 | – | – | – | – | – | –
CN1CCN(c2ccc(Nc3nc(Oc4ccc5ccc(=O)[nH]c5c4)c4sccc4n3)cc2F)CC1 | 4.84 | < 4.30 | 5.08 | 82% | < 5.00 | < 4.70 | – | – | –
C#Cc1cccc(Nc2ncnc3cc(OCCOC)c(OCCOC)cc23)c1 [ERLOTINIB] | < 4.70 | < 4.30 | 5.14 | – | – | – | – | – | –
O=c1ccc2ccc(Oc3nc(Nc4ccc(N5CCOCC5)c(F)c4)nc4ccsc34)cc2[nH]1 | – | – | – | 39% | < 5.00 | – | < 6.00 | – | –
O=c1ccc2ccc(Oc3nc(Nc4ccc(N5CCC(N6CCCCC6)CC5)cc4)nc4ccsc34)cc2[nH]1 | – | – | – | 83% | < 5.00 | – | – | – | –
CCN1CCN(c2ccc(Nc3nc(Oc4ccc5ccc(=O)[nH]c5c4)c4sccc4n3)c(OC)c2)CC1 | 5.00 | 4.61 | 5.36 | 75% | < 5.00 | < 4.70 | 6.48 | > 30 | –
O=c1ccc2ccc(Oc3nc(Nc4ccc(F)cc4)nc4ccsc34)cc2[nH]1 | – | – | – | 8% | < 5.00 | – | < 6.00 | – | –
CCN1CCN(c2nc(Oc3ccc4ccc(=O)[nH]c4c3)c3sccc3n2)CC1 | – | – | < 4.70 | inactive | < 5.00 | – | < 6.00 | – | –
O=c1ccc2ccc(Oc3nc(Nc4ccc(N5CCC(N6CCCCC6)CC5)c(F)c4)nc4ccsc34)cc2[nH]1 | 4.96 | 4.78 | 5.25 | 87% | 4.91 | 4.98 | 6.96 | 113 | Activity [6]: Active; Activity [7]: Not Active
CN1CCN(c2ccc(Nc3nc(Oc4ccc5ccc(=O)[nH]c5c4)c4sccc4n3)cc2)CC1 | 5.38 | 5.24 | < 4.30 | 82% | < 5.00 | 5.46 | 6.60 | > 40 | –
CCN1CCN(Cc2ccc(Nc3nc(Oc4ccc5ccc(=O)[nH]c5c4)c4sccc4n3)cc2)CC1 | 5.00 | 4.76 | 5.28 | 81% | < 5.00 | 5.27 | 6.62 | > 42 | –
O=c1ccc2ccc(Oc3nc(Nc4ccc(N5CCOCC5)cc4)nc4ccsc34)cc2[nH]1 | – | – | 4.90 | 56% | < 5.00 | – | – | – | –
COc1cc(N2CCN(C)CC2)ccc1Nc1nc(Oc2ccc3ccc(=O)[nH]c3c2)c2sccc2n1 | 5.16 | 4.66 | 5.17 | 74% | < 5.00 | < 4.70 | 6.48 | > 30 | –
CN1CCN(c2nc(Oc3ccc4ccc(=O)[nH]c4c3)c3sccc3n2)CC1 | – | – | – | inactive | – | – | < 6.00 | – | –
O=c1ccc2ccc(Oc3nc(Nc4ccc(N5CCS(=O)(=O)CC5)cc4)nc4ccsc34)cc2[nH]1 | – | – | – | 64% | < 5.00 | – | – | – | –
CN(C)CCNc1ccc(Nc2nc(Oc3ccc4ccc(=O)[nH]c4c3)c3sccc3n2)cc1F | 4.97 | 4.80 | 5.49 | 81% | 4.85 | 5.53 | 6.64 | 61 | inhibition (NCI-H1975 [8]): Dose-dependent effect; Activity (A549 [9]): Toxic; Activity [6]: Active; Activity [7]: Not Active; inhibition (NCI-H1975 [10]): Active; Activity (A549 [11]): Non-Toxic; inhibition [12]: 34%; inhibition [13]: 43%; inhibition [14]: 89%; inhibition (INH) [15]: Not Active; inhibition [16]: 5%; inhibition [17]: 53%; inhibition [18]: 66%; inhibition (INH) [19]: Not Active; inhibition [20]: Dose-dependent effect; inhibition [21]: Dose-dependent effect
CN1CCN(Cc2ccc(Nc3nc(Oc4ccc5ccc(=O)[nH]c5c4)c4sccc4n3)cc2)CC1 | 4.97 | 4.71 | 5.10 | 83% | < 5.00 | 5.09 | 6.70 | > 50 | –
COc1cccc(Nc2nc(Oc3ccc4ccc(=O)[nH]c4c3)c3sccc3n2)c1 | – | – | – | 22% | < 5.00 | – | < 6.00 | – | –
CN1CCN(c2ccc(Nc3nc(Oc4ccc5ccc(=O)[nH]c5c4)c4sccc4n3)nc2)CC1 | – | – | < 4.70 | 32% | < 5.00 | < 4.70 | < 6.00 | – | –
O=c1ccc2ccc(Oc3nc(Nc4ccc(CN5CCOCC5)cc4)nc4ccsc34)cc2[nH]1 | – | – | – | 60% | < 5.00 | – | – | – | –
